Laboratory results reported in patent US20070232492A1, “Herbicidal Composition” (Ishihara Sangyo Kaisha, LTD., priority 2004, published 2007).

What was measured:
[1] = tested on: Japanese bulrush (Scirpus juncoides); experiment: Growth inhibition of Japanese bulrush in paddy soil pots, application under submerged condition, visual rating and Colby expected value; type: in vivo
Outline: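 Scirpus juncoides was sown in paddy soil pots flooded to 3.5 cm and treated under submerged conditions at the 2–3 leaf stage with water-diluted formulations, alone or in combination. Growth inhibition was rated visually 10 or 19 days after application (0% untreated to 100% complete kill). Expected combination values come from Colby's formula.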

[2] = tested on: flatsedge (Cyperus serotinus); experiment: Growth inhibition of flatsedge (planted tubers) in paddy soil pots, application under submerged condition, visual rating and Colby expected value; type: in vivo
Outline: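 Tubers grown in flooded paddy soil (3.5 cm water); compounds, alone or mixed, diluted in water and applied submerged at about 2.5-4 leaf stage. Growth inhibition rated visually 21-30 days later (0% untreated to 100% kill); expected mixture values by Colby equation.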

[3] = Schoenoplectiella juncoides, soil, 696 h, read-out: Growth inhibition rate (%) Observed

COCC(=O)OC(c1ncccc1S(=O)(=O)NC(=O)Nc1nc(OC)cc(OC)n1)C(C)F (centres unmarked) [Compound A2, flucetosulfuron]
Growth inhibition rate (%) Observed ([1]; 0.025 g/a, 2 leaf stage, 19 days after application, Test Example 33): 43% | Growth inhibition rate (%) Observed ([1]; 0.025 g/a, 2.3 to 2.6 leaf stage, 10 days after application): 27% | Growth inhibition rate (%) Observed ([1]; 0.05 g/a, 2 leaf stage, 19 days after application, Test Example 33): 70% | Growth inhibition rate (%) Observed ([1]; 0.05 g/a, 2.3 to 2.6 leaf stage, 10 days after application): 40% | Growth inhibition rate (%) Observed ([1]; 0.075 g/a, 2.6 to 3.1 leaf stage, 22 days after application, Test Examples 50, 58): 94% | Growth inhibition rate (%) Observed ([1]; 0.1 g/a, 2.3 to 2.6 leaf stage, 10 days after application): 63% | Growth inhibition rate (%) Observed ([1]; 0.125 g/a, 2 leaf stage, 19 days after application, Test Example 34): 50% | Growth inhibition rate (%) Observed ([1]; 0.15 g/a, 2.6 to 3.1 leaf stage, 22 days after application, Test Examples 50, 58): 93% | Growth inhibition rate (%) Observed ([1]; 0.167 g/a, 2 leaf stage, 19 days after application, Test Example 34): 79% | Growth inhibition rate (%) Observed ([1]; 0.22 g/a, 2.2 to 2.8 leaf stage, 29 days after application, Test Example 44): 87% | Growth inhibition rate (%) Observed ([1]; 1.5 g/a, 2 leaf stage, 19 days after application, Test Example 34): 87% | Growth inhibition rate (%) Observed ([1]; 8.3 g/ha, 3 leaf stage, 19 days after application, Test Example 37): 70% | Growth inhibition rate (%) Observed ([2]; 0.0275 g/a, 2.8 to 3.2 leaf stage, 29 days after application): 0% | Growth inhibition rate (%) Observed ([2]; 0.15 g/a, 2.5 to 3.0 leaf stage, 30 days after application, Test Examples 46-60): 40% | Growth inhibition rate (%) Observed ([2]; 0.2 g/a, 4 leaf stage, 21 days after application): 20% | Growth inhibition rate (%) Observed ([2]; 0.4 g/a, 4 leaf stage, 21 days after application): 50%

CCS(=O)(=O)Oc1ccc2c(c1)C(C)(C)CO2 [Compound (B8.1), benfuresate]
inhibition at 600 g/ha [1, 3]: 90% | inhibition at 900 g/ha [1, 3]: 89% | inhibition at 1200 g/ha [1, 3]: 89% | inhibition at 600 g/ha ([2]; Cyperus serotinus, soil, 720 h, read-out: Growth inhibition rate (%) Observed): 93%

CCCOCCN(C(=O)CCl)c1c(CC)cccc1CC [Compound (B3.1), pretilachlor]
inhibition at 50 g/ha ([1]; Schoenoplectiella juncoides, soil, 240 h, 0.5 g/a, 2.3 to 2.6 leaf stage, 10 days after application, read-out: Growth inhibition rate (%) Observed): 3% | inhibition at 100 g/ha ([1]; Schoenoplectiella juncoides, soil, 240 h, 1 g/a, 2.3 to 2.6 leaf stage, 10 days after application, read-out: Growth inhibition rate (%) Observed): 10% | inhibition at 400 g/ha ([2]; Cyperus serotinus, soil, 720 h, 4 g/a, 2.5 to 3.0 leaf stage, 30 days after application, Test Examples 46-60, read-out: Growth inhibition rate (%) Observed): 20%
